# Experimental data as given in patent US6399629B1, “Efflux pump inhibitors” (priority 1998, dated 2002).
# System: Pseudomonas aeruginosa PAM1001
# Assay: checkerboard assay (broth microdilution): levofloxacin MIC in presence of efflux pump inhibitor
# Type: cell-based
# Experimental: For compounds labeled with the prefix ‘M’, potentiation effect is observed by the reduction of the minimum inhibitory concentration of levofloxacin in the presence of the experimental efflux pump inhibitor. The activity of efflux pump inhibitors (EPI) in combination with fluoroquinolones, such as levofloxacin, is assessed by the checkerboard assay (Antimicrobial Combinations. In Antibiotics in Laboratory Medicine, Ed. Victor Lorian, M.D., Fourth edition, 1996, pp 333-338) using broth microdilution method performed as recommended by the National Committee for Clinical Laboratory Standards (1997). Methods for Dilution of Antimicrobial Susceptibility Tests for Bacteria That Grow Aerobically—Fourth Edition; Approved Standard. NCCLS Document M7-A4, Vol 17 No.2). The test organism used is Pseudomonas aeruginosa PAM1001. […] The compounds tabulated below are representative of the described invention.
# In these assays, multiple dilutions of two drugs, namely the EPI and levofloxacin, are being tested, alone and in combination, at concentrations equal to, above and below their respective minimal inhibitory concentrations (MICs). In the case of EPI, most of these compounds are devoid of intrinsic antimicrobial activity and are tested up to the maximum concentration of 40 μg/mL. The MIC of levofloxacin against P. aeruginosa PAM1001 is 4 μg/mL.
# The EPI tested are readily soluble in water and stock solutions are prepared at a final concentration of 2 mg/mL. Stock solutions are further diluted, according to the needs of a particular assay, in Mueller Hinton Broth (MHB). Stock solution can be stored at −80° C. Quinolones are solubilized according to the instructions of the manufacturers, at a concentration of 1 mg/mL. They are then further diluted in MHB. Stock solution can be stored at −80° C.
# The checkerboard assay is performed in microtiter plates. Levofloxacin is diluted in the x axis, each column containing a single concentration of levofloxacin. The EPI is diluted in the y axis, each row containing an equal concentration of EPI. The result of these manipulations is that each well of the microtiter plate contains a unique combination of concentrations of the two agents. Each EPI are tested independently.
# The assay is performed in MHB with a final bacterial inoculum of 5×10^5 CFU/mL (from an early-log phase culture). Microtiter plates are incubated during 20 h at 35° C. and are read using a microtiter plate reader (Molecular Devices) at 650 nm as well as visual observation using a microtiterplate reading mirror.
Compound,"Levofloxacin MIC Against P. aerugiuosa PAM1001 in Presence of Efflux Pump Inhibitor (EPI), Minimum Inhibitory Concentration (EPI Conc. 0 μg/mL)","Levofloxacin MIC Against P. aerugiuosa PAM1001 in Presence of Efflux Pump Inhibitor (EPI), Minimum Inhibitory Concentration (EPI Conc. 0.625 μg/mL)","Levofloxacin MIC Against P. aerugiuosa PAM1001 in Presence of Efflux Pump Inhibitor (EPI), Minimum Inhibitory Concentration (EPI Conc. 1.25 μg/mL)","Levofloxacin MIC Against P. aerugiuosa PAM1001 in Presence of Efflux Pump Inhibitor (EPI), Minimum Inhibitory Concentration (EPI Conc. 2.5 μg/mL)","Levofloxacin MIC Against P. aerugiuosa PAM1001 in Presence of Efflux Pump Inhibitor (EPI), Minimum Inhibitory Concentration (EPI Conc. 5 μg/ mL)","Levofloxacin MIC Against P. aerugiuosa PAM1001 in Presence of Efflux Pump Inhibitor (EPI), Minimum Inhibitory Concentration (EPI Conc. 10 μg/mL)","Levofloxacin MIC Against P. aerugiuosa PAM1001 in Presence of Efflux Pump Inhibitor (EPI), Minimum Inhibitory Concentration (EPI Conc. 20 μg/mL)","Levofloxacin MIC Against P. aerugiuosa PAM1001 in Presence of Efflux Pump Inhibitor (EPI), Minimum Inhibitory Concentration (EPI Conc. 40 μg/mL)"
"COc1cc(C)c2ncc(NC(=O)[C@@H](CC(C)C)NC(=O)[C@@H]3C[C@@H](NC(=O)CN)CN3)cc2c1 [Compound M10, (2S,4R)-4-(2-Aminoacetamido)-N-[(1R)-3-3-methyl-1-(6-methoxy-8-methyl-3-quinolylcarbamoyl)butyl]-2-pyrrolidinecarboxamide]",4 µg/mL,4 µg/mL,4 µg/mL,4 µg/mL,4 µg/mL,4 µg/mL,1 µg/mL,0.06 µg/mL
"NCC(=O)N[C@H]1CN[C@H](C(=O)N[C@H](CCc2ccccc2)CSc2ccc3ccccc3n2)C1 [Compound M55, (2S,4R)-4-(2-Aminoacetamido)-N-[(1R)-3-phenyl-1-[(2-quinolythio)methyl]propyl]-2-pyrrolidinecarobxamide]",4 µg/mL,4 µg/mL,4 µg/mL,4 µg/mL,4 µg/mL,2 µg/mL,1 µg/mL,0.06 µg/mL
"NC[C@@H]1CN[C@@H](CO[C@H](CCc2ccccc2)C(=O)Nc2cnc3ccccc3c2)C1 [Compound M70, (2R,4R)-4-(Amiomethyl)-2-[((1R)-3-phenyl-1-(3-quiolylcarbamoyl)propyl)oxymethyl]pyrrolidie]",4 µg/mL,4 µg/mL,2 µg/mL,1 µg/mL,1 µg/mL,0.125 µg/mL,0.125 µg/mL,0.06 µg/mL
"Cc1ccc2ncc(C(=O)NC[C@H]3C[C@H](CN)CN3)cc2c1 [Compound M72, (2R,4R)-4-(Aminomethyl)-2-(6-methyl-3-quinolylcarboxamidomethyl)pyrrolidine]",4 µg/mL,4 µg/mL,4 µg/mL,4 µg/mL,4 µg/mL,4 µg/mL,2 µg/mL,0.5 µg/mL
"NCC(=O)N[C@@H]1CN[C@@H](C(=O)N[C@H](CCc2ccccc2)C(=O)Nc2cnc3ccccc3c2)C1 [Compound M1, (2R,4S)-4-(2-Amionoacetamido)-N-[(1R-)-3-phenyl-1-(3-quinolylcarbamoyl)propyl]-2-pyrrolidinecarboxamide]",4 µg/mL,4 µg/mL,4 µg/mL,4 µg/mL,2 µg/mL,0.06 µg/mL,0.015 µg/mL,0.015 µg/mL
"NC[C@@H]1CN[C@@H](CO[C@@H](CCc2ccccc2)C(=O)Nc2cnc3ccccc3c2)C1 [Compound M69, (2R,4R)-4-(Aminomethyl)-2-[((1S)-3-phenyl-1-(3-quiolylcarbamoyl)propyl)oxymethyl]pyrrolidine]",4 µg/mL,4 µg/mL,2 µg/mL,2 µg/mL,0.125 µg/mL,0.125 µg/mL,0.125 µg/mL,0.06 µg/mL
"NC[C@@H]1CN[C@@H](C(=O)N[C@H](Cc2ccc(F)cc2)C(=O)Nc2cnc3ccccc3c2)C1 [Compound M31, (2R,4R)-4-(Aminomethyl)-N-[(1R)-2-(4-fluoropheyl)-1-(3-quinolylcarbamoyl)ethyl]-2-pyrrolidinecarboxamide]",4 µg/mL,4 µg/mL,4 µg/mL,4 µg/mL,1 µg/mL,0.25 µg/mL,0.03 µg/mL,0.03 µg/mL
"NCC(=O)N[C@H]1CN[C@H](C(=O)N[C@H](CCc2ccccc2)COc2ccc3ccccc3n2)C1 [Compound M54, (2S,rR)-4-(2-Aminoacetamido)-N-[(1R)-3-phenyl-1-[(2-quinolyloxy)methyl]propyl]-2-pyrrolidinecarboxamide]",4 µg/mL,4 µg/mL,4 µg/mL,4 µg/mL,4 µg/mL,0.125 µg/mL,0.06 µg/mL,0.03 µg/mL
"(2R,4S)-4-(2-Aminoacetamideo)-N-(2-methylpropyl)-N-(7-ethyl-3-quinolylcarbamoyl)ethyl]-2-pyrrolidinecarboxamide [Compound M44]",4 µg/mL,4 µg/mL,4 µg/mL,4 µg/mL,1 µg/mL,0.06 µg/mL,0.015 µg/mL,0.03 µg/mL
